Test results as given in patent US8946266B2, “Substituted triazole and imidazole derivatives as gamma secretase modulators” (Janssen Pharmaceuticals, Inc., priority 2009, dated 2015).
pIC50: −log10 of the molar value.

Experiments:
Aβ42 = assay: γ-secretase-modulating activity, Method 2: Aβ42 Alphalisa in supernatant of SKNBE2 cells carrying APP 695-wild type (Table 3b); format: cell-based; settings: overnight
Description: (§1) Screening was carried out using SKNBE2 cells carrying the APP 695-wild type, grown in Dulbecco's Modified Eagle's Medium/Nutrient mixture F-12 (DMEM/NUT-mix F-12) (HAM) provided by Invitrogen (cat no. 10371-029) containing 5% Serum/Fe supplemented with 1% non-essential amino acids, 1-glutamine 2 mM, Hepes 15 mM, penicillin 50 U/ml (units/ml) en streptomycin 50 μg/ml. Cells were grown to near confluency.
(§2) The screening was performed using a modification of the assay as described in Citron et al (1997) Nature Medicine 3: 67. Briefly, cells were plated in a 384-well plate at 10^4 cells/well in Ultraculture (Lonza, BE12-725F) supplemented with 1% glutamine (Invitrogen, 25030-024), 1% non-essential amino acid (NEAA), penicillin 50 U/ml en streptomycin 50 μg/ml in the presence of test compound at different test concentrations. The cell/compound mixture was incubated overnight at 37° C., 5% CO2. The next day the media were assayed by two sandwich immuno-assays, for Aβ42 and Aβtotal.
(§3) Aβtotal and Aβ42 concentrations were quantified in the cell supernatant using the Aphalisa technology (Perkin Elmer). Alphalisa is a sandwich assay using biotinylated antibody attached to streptavidin coated donorbeads and antibody conjugated to acceptor beads. In the presence of antigen, the beads come into close proximity. The excitation of the donor beads provokes the release of singlet oxygen molecules that trigger a cascade of energy transfer in the acceptor beads, resulting in light emission. To quantify the amount of Aβ42 in the cell supernatant, monoclonal antibody specific to the C-terminus of Aβ42 (JRF/cAβ42/26) was coupled to the receptor beads and biotinylated antibody specific to the N-terminus of Aβ (JRF/AβN/25) was used to react with the donor beads. To quantify the amount of Aβ total in the cell supernatant, monoclonal antibody specific to the N-terminus of Aβ (JRF/AβN/25) was coupled to the receptor beads and biotinylated antibody specific to the mid region of Aβ (biotinylated 4G8) was used to react with the donor beads.
To obtain the values reported in Table 3b, the data were calculated as percentage of the maximum amount of amyloid Beta 42 measured in the absence of the test compound.
(§4) The sigmoidal dose response curves were analyzed using non-linear regression analysis with percentage of the control plotted against the log concentration of the compound. A 4-parameter equation was used to determine the IC50.
(§5) The IC50 values are shown in Table 3b (Aβtot means Aβtotal).

Aβtotal = assay: γ-secretase-modulating activity, Method 2: Aβtotal Alphalisa in supernatant of SKNBE2 cells carrying APP 695-wild type (Table 3b); format: cell-based; settings: overnight, read-out: IC50 Aβtot
Description: as §1, §2, §3, §4, §5

Row | pIC50 (Aβ42) | pIC50 (Aβtotal) | pIC50 (Aβ42; Homo sapiens) | Structure (SMILES)
1 | 6.79 | < 5.00 | – | COc1cc(-c2nc(Nc3ccc(Cl)cc3F)n(C)n2)ccc1-n1cnc(C)c1 [Compound 126]
2 | 7.02 | < 5.00 | – | COc1cc(-c2nc3n(n2)CCOC3c2ccccc2OC(F)(F)F)ccc1-n1cnc(C)c1 (centres unmarked) [Compound 346]
3 | 6.17 | 5.19 | – | COc1cc(-c2nc(N3CCCC(C(F)(F)F)C3)n(C(C)C)n2)ccc1-n1cnc(C)c1 (racemic) [Compound 75]
4 | 5.12 | < 5.00 | – | COc1cc(-c2nc(Oc3ccccc3Cl)n(C)n2)ccc1-n1cnc(C)n1 [Compound 272]
5 | – | – | 6.35 | COc1cc(-c2nc(C3CCc4ccccc4N3)n(C)n2)ccc1-n1cnc(C)c1 (centres unmarked) [Compound 365]
6 | 6.10 | < 5.00 | – | Cc1cn(-c2ccc(-c3nc(Nc4cc(C(F)(F)F)ccc4F)n(C)n3)cc2OC(F)(F)F)cn1 [Compound 139]
7 | 5.51 | < 5.00 | – | COc1cc(-c2nc(-c3cc(Cl)ccc3C)nn2C)ccc1-n1cnc(C)c1 [Compound 298]
8 | 6.82 | < 5.00 | – | COc1cc(-c2nc3c(-c4ccccc4OC(F)(F)F)cccn3n2)ccc1-n1cnc(C)c1 [Compound 288]
9 | 5.82 | 5.22 | – | COc1cc(-c2nc(-c3cc(C(F)(F)F)ccc3C)nn2C)ccc1-n1cnc(C)c1 [Compound 296]
10 | 6.19 | < 5.00 | – | COc1cc(-c2nc(NCc3ccccc3)n(C)n2)ccc1-n1cnc(C)c1 [Compound 245]
11 | 6.54 | < 5.00 | – | Cc1cn(-c2ccc(-c3nc(Nc4ccccc4C)n(C)n3)cc2OC(F)(F)F)cn1 [Compound 98]
12 | 6.51 | < 5.00 | – | COc1cc(-c2nc(Nc3ccc(F)cc3C(F)(F)F)nn2C)ccc1-n1cnc(C)c1 [Compound 16]
13 | 5.93 | < 5.00 | – | COc1cc(-c2nc(N3CCCOc4ccccc43)n(C)n2)ccc1-n1cnc(C)c1 [Compound 327]
14 | 7.11 | < 5.00 | – | COc1cccc(Nc2nc(-c3ccc(-n4cnc(C)c4)c(OC)c3)nn2C)c1 [Compound 186]
15 | 6.32 | < 5.00 | – | COc1cc(-c2nc(Cc3ccc(F)cc3)n(C)n2)ccc1-n1cnc(C)c1 [Compound 22]
16 | 7.10 | < 5.00 | – | COc1nc(-c2nc3n(n2)CCOC3c2ccccc2OC(F)(F)F)ccc1-n1cnc(C)c1 (centres unmarked) [Compound 348]
17 | 6.57 | 5.01 | – | COc1cc(-c2nc(Oc3cccc(C(F)(F)F)c3)n(C)n2)ccc1-n1cnc(C)c1 [Compound 246]
18 | 5.90 | < 5.00 | – | COc1nc(-c2nc(C)n(C(C)c3ccc(F)cc3)n2)ccc1-n1cnc(C)c1 (racemic) [Compound 69]
19 | 5.53 | < 5.00 | – | COc1cc(-c2nc(/C=C/c3ccc(F)cc3)nn2C)ccc1-n1cnc(C)c1 [Compound 59]
20 | 6.81 | 5.00 | – | COc1cc(-c2nc(Nc3cccc(C(F)(F)F)c3)n(C)n2)ccc1-n1cnc(C)n1 [Compound 273]
21 | 6.44 | 5.09 | – | COc1cc(-c2nc(Oc3ccccc3Cl)n(C(C)C)n2)ccc1-n1cnc(C)c1 [Compound 247]
22 | 6.65 | < 5.00 | – | COc1cc(-c2nc(N3CCc4ccccc4C3)n(C)n2)ccc1-n1cnc(C)c1 [Compound 81]
23 | 5.63 | < 5.00 | – | COc1cc(-c2nc3c(-c4ccccc4)nccn3n2)ccc1-n1cnc(C)c1 [Compound 292]
24 | 7.39 | < 5.00 | – | COc1cc(-c2nc(Nc3ccccc3Cl)n(C)n2)ccc1-n1cnc(C)c1 [Compound 101]
25 | 7.12 | < 5.00 | – | COc1cc(F)c(F)c(Nc2nc(-c3ccc(-n4cnc(C)c4)c(OC)c3)nn2C)c1 [Compound 216]
26 | 7.07 | < 5.00 | – | COc1cc(-c2nc(/C=C/c3ccc(F)cc3)n(C)n2)ccc1-n1cnc(C)c1 [Compound 45]

Row | pIC50 (Aβ42) | pIC50 (Aβtotal) | pIC50 (Aβ42; Homo sapiens) | Structure (SMILES)
27 | 7.59 | < 5.00 | – | CCn1nc(-c2ccc(-n3cnc(C)c3)c(OC)c2)nc1Nc1cc(C(F)(F)F)ccc1F [Compound 135]
28 | < 5.00 | < 5.00 | – | COc1cc(-c2nc(N3C[C@@H](C)O[C@@H](C)C3)nn2C)ccc1-n1cnc(C)c1 [Compound 64]
29 | 6.96 | < 5.00 | – | COc1cc(-c2nc(N(C)c3ccc(F)cc3C(F)(F)F)n(C)n2)ccc1-n1cnc(C)c1 [Compound 50]
30 | 6.39 | < 5.00 | – | COc1cc(-c2nc(-c3ccc(F)cc3)n(C3CCCC3)n2)ccc1-n1cnc(C)c1 [Compound 41]
31 | 6.25 | 5.05 | – | COc1cc(-c2nc(C3(c4cc(C(F)(F)F)ccc4F)CC3)n(C)n2)ccc1-n1cnc(C)c1 [Compound 90]
32 | 6.82 | 5.11 | – | COc1cc(-c2nc(Nc3ccc(Cl)cc3)n(C)n2)ccc1-n1cnc(C)c1 [Compound 108]
33 | 7.28 | < 5.00 | – | COc1cc(-c2nc3n(n2)CCCC3c2ccccc2C)ccc1-n1cnc(C)c1 (centres unmarked) [Compound 344]
34 | 7.55 | – | – | COc1cc(-c2nc(Nc3cc(C)ccc3C(F)(F)F)n(C)n2)ccc1-n1cnc(C)c1 [Compound 351]
35 | 7.40 | – | – | COc1cc(-c2nc3n(n2)CCOC3c2cc(C(F)(F)F)ccc2C)ccc1-n1cnc(C)c1 (centres unmarked) [Compound 371]
36 | 8.15 | – | – | COc1cc(-c2nc(Nc3cc(C(C)(C)C)ccc3F)n(C)n2)ccc1-n1cnc(C)c1 [Compound 357]
37 | 7.08 | – | – | COc1ccc(F)c(C2CCCn3nc(-c4ccc(-n5cnc(C)c5)c(OC)c4)nc32)c1 (centres unmarked) [Compound 364]
38 | 6.91 | – | – | COc1cc(-c2nc3n(n2)CCC(C)C3c2ccc(F)cc2)ccc1-n1cnc(C)c1 (centres unmarked) [Compound 369]
39 | 7.21 | – | – | COc1nc(-c2nc3n(n2)CCOC3c2cc(OC(F)(F)F)ccc2F)ccc1-n1cnc(C)c1 (centres unmarked) [Compound 374]
40 | 7.21 | – | – | COc1cc(-c2nc(Nc3cc(OC4CCOC4)ccc3F)n(C)n2)ccc1-n1cnc(C)c1 (racemic) [Compound 358]
41 | 7.44 | – | – | COc1nc(-c2nc3n(n2)CCOC3c2cc(C(F)(F)F)ccc2C)ccc1-n1cnc(C)c1 (centres unmarked) [Compound 370]
42 | 7.11 | – | – | COc1cc(-c2nc(Nc3ccccc3OC(C)C)n(C)n2)ccc1-n1cnc(C)c1 [Compound 367]
43 | 7.70 | – | – | COc1cc(-c2nc(Nc3cc(OCC4CC4)ccc3F)n(C)n2)ccc1-n1cnc(C)c1 [Compound 356]
44 | 7.66 | – | – | CCOc1ccc(F)c(Nc2nc(-c3ccc(-n4cnc(C)c4)c(OC)c3)nn2C)c1 [Compound 354]
45 | 7.22 | – | – | COc1cc(-c2nc(Nc3ccc(C)cc3F)n(C)n2)ccc1-n1cnc(C)c1 [Compound 352]
46 | – | – | 6.29 | COc1cc(-c2nc(C3CCc4ccccc4N3C)n(C)n2)ccc1-n1cnc(C)c1 (centres unmarked) [Compound 366]
47 | 7.18 | – | – | COc1nc(-c2nc3n(n2)CCC(C)C3c2ccc(F)cc2)ccc1-n1cnc(C)c1 (centres unmarked) [Compound 368]
48 | 6.62 | – | – | COc1nc(-c2nc3n(n2)CCC[C@@H]3c2ccc(F)cc2C)ccc1-n1cnc(C)c1 [Compound 360]
49 | 6.39 | – | – | COc1cc(-c2nc3n(n2)C(C)CCC3c2ccc(F)cc2C)ccc1-n1cnc(C)c1 (centres unmarked) [Compound 363]
50 | 7.36 | – | – | COc1cc(-c2nc(Nc3cc(C)ccc3F)n(C)n2)ccc1-n1cnc(C)c1 [Compound 350]
51 | 6.87 | – | – | COCCOc1ccc(F)c(Nc2nc(-c3ccc(-n4cnc(C)c4)c(OC)c3)nn2C)c1 [Compound 355]
